Assay: Inhibitory activity against human gamma-secretase using SH-SY5Y cells.
Assay type: cell-based

SMILES	IC50 [nM]
CN1C(=O)C(NC(=O)CCc2ccc(F)cc2)N=C(c2ccc(C(N)=O)cc2)c2ccccc21 (centres undefined)	110
CN1C(=O)C(NC(=O)CCc2ccc(F)c(F)c2)N=C(c2ccc(C(N)=O)cc2)c2ccccc21 (centres undefined)	29
CN1C(=O)C(NC(=O)CCc2cc(F)cc(F)c2)N=C(c2ccc(C(N)=O)cc2)c2ccccc21 (centres undefined)	110
CN1C(=O)C(NC(=O)CCc2cccc(Cl)c2Cl)N=C(c2ccc(C(N)=O)cc2)c2ccccc21 (centres undefined)	22
Cc1ccc(CCC(=O)NC2N=C(c3ccc(C(N)=O)cc3)c3ccccc3N(C)C2=O)cc1 (centres undefined)	180
CN1C(=O)[C@@H](NC(=O)C(Cc2ccc(Cl)c(Cl)c2)c2ccsc2)N=C(c2ccccc2)c2ccccc21 (some centres undefined)	100
CN1C(=O)C(NC(=O)CCc2cc(Cl)cc(Cl)c2)N=C(c2ccc(C(N)=O)cc2)c2ccccc21 (centres undefined)	40
CN1C(=O)C(NC(=O)CCc2c(Cl)cccc2Cl)N=C(c2ccc(C(N)=O)cc2)c2ccccc21 (centres undefined)	3200
CN1C(=O)C(NC(=O)CCc2ccc(N)cc2)N=C(c2ccc(C(N)=O)cc2)c2ccccc21 (centres undefined)	> 10000
COc1ccccc1CCC(=O)NC1N=C(c2ccc(C(N)=O)cc2)c2ccccc2N(C)C1=O (centres undefined)	5100
CN1C(=O)[C@@H](NC(=O)[C@@H](Cc2ccc(Cl)c(Cl)c2)NC(=O)OC(C)(C)C)N=C(c2ccccc2)c2ccccc21	750
CN1C(=O)C(NC(=O)CCc2cccc(O)c2)N=C(c2ccc(C(N)=O)cc2)c2ccccc21 (centres undefined)	6800
CN1C(=O)[C@@H](NC(=O)[C@@H](Cc2ccc(Cl)c(Cl)c2)N2CCCC2)N=C(c2ccccc2)c2ccccc21	405
C[C@@H](Cc1ccc(Cl)cc1Cl)C(=O)N[C@H]1N=C(c2ccccc2)c2ccccc2N(C)C1=O	820
COc1ccc(CCC(=O)NC2N=C(c3ccc(C(N)=O)cc3)c3ccccc3N(C)C2=O)cc1 (centres undefined)	1340
CN1C(=O)[C@@H](NC(=O)[C@H](Cc2ccc(Cl)c(Cl)c2)c2ccc(F)cc2)N=C(c2ccccc2)c2ccccc21	15
COc1cccc(CCC(=O)NC2N=C(c3ccc(C(N)=O)cc3)c3ccccc3N(C)C2=O)c1 (centres undefined)	1600
CC(Cc1ccc(Cl)cc1Cl)C(=O)NC1N=C(c2ccc(C(N)=O)cc2)c2ccccc2N(C)C1=O (centres undefined)	8
CN1C(=O)[C@@H](NC(=O)[C@H](Cc2ccc(F)c(F)c2)c2ccc(F)cc2)N=C(c2ccccc2)c2ccccc21	3.8
CN1C(=O)C(NC(=O)CCc2ccc(Cl)cc2)N=C(c2ccc(C(N)=O)cc2)c2ccccc21 (centres undefined)	15
CN1C(=O)C(NC(=O)CCc2cccc(Cl)c2)N=C(c2ccc(C(N)=O)cc2)c2ccccc21 (centres undefined)	93
CN1C(=O)C(NC(=O)CCCc2ccccc2)N=C(c2ccc(C(N)=O)cc2)c2ccccc21 (centres undefined)	5000
CN1C(=O)C(NC(=O)CCc2ccc(Cl)cc2Cl)N=C(c2ccc(C(N)=O)cc2)c2ccccc21 (centres undefined)	33
CN1C(=O)C(NC(=O)CCc2ccc(Cl)c(Cl)c2)N=C(c2ccc(C(N)=O)cc2)c2ccccc21 (centres undefined)	12
CN1C(=O)[C@@H](NC(=O)[C@@H](Cc2ccc(Cl)c(Cl)c2)c2ccccc2)N=C(c2ccccc2)c2ccccc21	72

SMILES	IC50 [nM]
CN1C(=O)C(NC(=O)CCc2ccc(O)cc2)N=C(c2ccc(C(N)=O)cc2)c2ccccc21 (centres undefined)	> 10000
C[C@@H](Cc1ccc(Cl)c(Cl)c1)C(=O)N[C@H]1N=C(c2ccccc2)c2ccccc2N(C)C1=O	320
CN1C(=O)C(NC(=O)C(C)(C)Cc2ccc(Cl)cc2Cl)N=C(c2ccc(C(N)=O)cc2)c2ccccc21 (centres undefined)	400
CN1C(=O)C(NC(=O)Cc2ccc(Cl)cc2Cl)N=C(c2ccc(C(N)=O)cc2)c2ccccc21 (centres undefined)	> 10000
CN1C(=O)C(NC(=O)CCc2ccccc2)N=C(c2ccc(C(N)=O)cc2)c2ccccc21 (centres undefined)	340
C[C@@H](Cc1ccc(F)c(F)c1)C(=O)N[C@H]1N=C(c2ccccc2)c2ccccc2N(C)C1=O	220
CN1C(=O)[C@@H](NC(=O)C(Cc2ccc(Cl)c(Cl)c2)c2cccs2)N=C(c2ccccc2)c2ccccc21 (some centres undefined)	37
CN1C(=O)C(NC(=O)/C=C/c2ccc(Cl)cc2Cl)N=C(c2ccc(C(N)=O)cc2)c2ccccc21 (centres undefined)	4700
Cc1nc(C(Cc2ccc(Cl)c(Cl)c2)C(=O)N[C@H]2N=C(c3ccccc3)c3ccccc3N(C)C2=O)cs1 (some centres undefined)	640
CN1C(=O)[C@@H](NC(=O)[C@H](Cc2ccc(Cl)c(Cl)c2)c2ccc(Br)cc2)N=C(c2ccccc2)c2ccccc21	100
CN1C(=O)C(NC(=O)CCc2ccccc2Cl)N=C(c2ccc(C(N)=O)cc2)c2ccccc21 (centres undefined)	305
CN1C(=O)C(NC(=O)CCc2cc(Cl)ccc2Cl)N=C(c2ccc(C(N)=O)cc2)c2ccccc21 (centres undefined)	60
CN1C(=O)[C@@H](NC(=O)[C@H](Cc2ccc(Cl)c(Cl)c2)c2ccccc2)N=C(c2ccccc2)c2ccccc21	180
C[C@@H](Cc1ccc(Cl)cc1Cl)C(=O)N[C@@H]1N=C(c2ccccc2)c2ccccc2N(C)C1=O	> 10000
CN1C(=O)C(NC(=O)CCc2cc(C(F)(F)F)cc(C(F)(F)F)c2)N=C(c2ccc(C(N)=O)cc2)c2ccccc21 (centres undefined)	400
CN1C(=O)[C@@H](NC(=O)[C@H](Cc2ccc(Cl)c(Cl)c2)N2CCCC2)N=C(c2ccccc2)c2ccccc21	350
C[C@H](Cc1ccc(Cl)cc1Cl)C(=O)NC1N=C(c2ccc(C(N)=O)cc2)c2ccccc2N(C)C1=O (single isomer, unassigned; diastereomer A)	42
C[C@@H](Cc1ccc(Cl)cc1Cl)C(=O)NC1N=C(c2ccc(C(N)=O)cc2)c2ccccc2N(C)C1=O (single isomer, unassigned; diastereomer A)	500
CN1C(=O)[C@@H](NC(=O)C(Cc2ccc(Cl)c(Cl)c2)c2ccncc2)N=C(c2ccccc2)c2ccccc21 (single isomer, unassigned; diastereomer A)	1360
CC(C)C(Cc1ccc(Cl)c(Cl)c1)C(=O)N[C@H]1N=C(c2ccccc2)c2ccccc2N(C)C1=O (single isomer, unassigned; diastereomer A)	440
C[C@H](Cc1ccc(Cl)cc1Cl)C(=O)NC1N=C(c2ccc(C(N)=O)cc2)c2ccccc2N(C)C1=O (single isomer, unassigned; diastereomer B)	920
C[C@@H](Cc1ccc(Cl)cc1Cl)C(=O)NC1N=C(c2ccc(C(N)=O)cc2)c2ccccc2N(C)C1=O (single isomer, unassigned; diastereomer B)	1.9
CN1C(=O)[C@@H](NC(=O)C(Cc2ccc(Cl)c(Cl)c2)c2ccncc2)N=C(c2ccccc2)c2ccccc21 (single isomer, unassigned; diastereomer B)	190
CC(C)C(Cc1ccc(Cl)c(Cl)c1)C(=O)N[C@H]1N=C(c2ccccc2)c2ccccc2N(C)C1=O (single isomer, unassigned; diastereomer B)	240

— ChEMBL document CHEMBL1144978, “A new series of potent benzodiazepine gamma-secretase inhibitors” (Bioorg Med Chem Lett, 2003)
